Measured values reported in US20240335499A1, “PEPTIDE HAVING ANTIDIABETIC ACTIVITY AND USE THEREOF” (MEDI&GENE INC., priority 2021, published 2024).

Assays:
[1] = system: obese mouse model; experiment: Glucose tolerance in high-fat-diet obese mouse model; type: in vivo, C57BL/6N male mice; details: obese mice, 2.5 mg/kg
Procedure: 5-week-old C57BL/6N male mice were obtained from Orient Bio, fed a normal diet, and used after an adaptation period of one week. The breeding environment was maintained at 18 to 24° C. and a humidity of 50 to 60%, and the animals were given free access to feed and water during both the adaptation period and the experimental period. After the one-week adaptation period, the mice were induced to become obese through a high-fat diet to induce impaired glucose tolerance.
The mice in which obesity was induced were divided into a control and an experimental group. All mice were fasted for 12 hours, and PBS and a peptide (No. 1, 7, or 8; 2.5 mg/kg) were administered to the control and the experimental group, respectively. One hour later, a 20% glucose solution was intraperitoneally injected, and blood collected at each time period was analyzed using a blood glucose analyzer.

[2] = system: S6 (mTOR marker); experiment: S6 phosphorylation in L6 skeletal muscle cells (western blotting); type: cell-based; details: 100 nM, 1 hour; for phosphorylation of S6 (mTOR marker): FIG. 8
Procedure: (§1) L6 skeletal muscle cells were cultured in a 6-well plate and then starved with 0.5% FBS. Thereafter, the cells were treated with an antidiabetic peptide at a concentration of 100 nM for 1 hour, proteins were collected, and then western blotting was performed.

[3] = system: adipocyte protein 2 (AP2); experiment: AP2 gene expression in muscle tissue of db/db mice; type: in vivo, db/db diabetic mouse model; details: db/db mice muscle tissue RNA, 2.5 mg/kg intraperitoneally, 8 weeks
Procedure: (§2) It was confirmed whether the antidiabetic peptide relieves diabetes mellitus induced by leptin receptor defects. As an animal model, 5-week-old C57BLKS/J-db/db male mice were provided by Central Lab. Animal Inc., fed a normal diet, and used after an adaptation period of one week. The breeding environment was maintained at 18 to 24° C. and a humidity of 50 to 60%, and the animals were given free access to normal feed and water during both the adaptation period and the experimental period. Mice that completed the adaptation period were divided into a control (intraperitoneal injection) and a peptide administration group. PBS and antidiabetic peptides (Nos. 7 and 8; 2.5 mg/kg) were intraperitoneally administered to the control and peptide administration groups, respectively, for a total of 8 weeks.
(§3) Various tissue examinations were performed on a db/db diabetic mouse model to confirm the efficacy of relieving diabetic complications. First, in order to confirm muscle loss-related effects, RNA was isolated from muscle tissue and the expression levels of muscle loss-related genes were confirmed. […]

[4] = system: peroxisome proliferator-activated receptor α (PPARα); experiment: PPARα gene expression in muscle tissue of db/db mice; type: in vivo, db/db diabetic mouse model; details: db/db mice muscle tissue RNA, 2.5 mg/kg intraperitoneally, 8 weeks
Procedure: as §2, §3

[5] = system: CCAAT enhancer binding protein α (C/EBPα); experiment: C/EBPα gene expression in muscle tissue of db/db mice; type: in vivo, db/db diabetic mouse model; details: db/db mice muscle tissue RNA, 2.5 mg/kg intraperitoneally, 8 weeks
Procedure: as §2, §3

[6] = system: muscle RING Finger-1 (Murf-1); experiment: Murf-1 gene expression in muscle tissue of db/db mice; type: in vivo, db/db diabetic mouse model; details: db/db mice muscle tissue RNA, 2.5 mg/kg intraperitoneally, 8 weeks
Procedure: as §2, §3

[7] = system: FoxO1; experiment: FoxO1 phosphorylation and expression in L6 skeletal muscle cells (western blotting); type: cell-based; details: 100 nM, 1 hour
Procedure: as §1

[8] = system: glucose transporter type 4 (GLUT4); experiment: GLUT4 translocation to the cell membrane in C2C12 skeletal muscle cells; type: cell-based; details: 100 nM, 1 hour, FIG. 3: Nos. 1 to 8 and insulin
Procedure: Similarly, in order to further verify the function of promoting glucose metabolism by antidiabetic peptide treatment, the degree of expression of a glucose transporter type 4 (GLUT4) glucose receptor, which plays an important role in glucose uptake, in the cell membrane was measured. It is known that GLUT4 moves from the cytoplasm to the cell membrane to promote sugar metabolism, and thus the expression level thereof increases. To confirm this, C2C12 skeletal muscle cells were starved with 0.5% FBS and then treated with the peptide and insulin, which is a positive control, at a concentration of 100 nM for 1 hour. Cells were fixed with 4% paraformaldehyde, incubated with a GLUT4-specific antibody at 37° C. for 30 minutes, reacted with an o-phenylenediamine (OPD) solution, and absorbance was measured and compared with that of the control.

AGSIREAGGAFGKREQAEEERYFR (listed as Homo sapiens) [No. 7]
change in blood sugar over time (GLUAUC) reduced compared to the control ([1]; after baseline correction): 31.1% | phosphorylation of S6 (mTOR marker) [2]: increased | AP2 gene expression change [3]: −52.5% | PPARα gene expression change [4]: +94.1% | C/EBPα gene expression change [5]: −18.6% | Murf-1 gene expression change [6]: −90.1%

AQSREQLAALKK (listed as Homo sapiens) [No. 5]
phosphorylation of S6 protein, increase [2]: 494%

EQAEEER (listed as Homo sapiens) [No. 2]
phosphorylation of S6 protein, increase [2]: 365%

EQAEEERYFR (listed as Homo sapiens) [No. 4]
phosphorylation of S6 protein, increase [2]: 224%

REAGGAFGKR (listed as Homo sapiens) [No. 3]
phosphorylation of S6 (mTOR marker) [2]: increased

VDRGAGSIREAGGAFGKREQAEEERYFR (listed as Homo sapiens) [No. 8]
blood sugar metabolism after glucose injection, baseline corrected, compared to the control ([1]; fasted 12 hours, 20% glucose intraperitoneally one hour later, FIG. 4 left): significantly improving | phosphorylation of S6 protein, increase [2]: 414% | AP2 gene expression change [3]: −54.7% | PPARα gene expression change [4]: +12.9% | C/EBPα gene expression change [5]: −45.5% | Murf-1 gene expression change [6]: −36.0%

YFR (listed as Homo sapiens) [No. 1]
phosphorylation of S6 protein, increase [2]: 188% | expression level of total FoxO1 [7]: decreased | phosphorylation of FoxO1 ([7]; FIG. 9: Nos. 1 to 8): increased

YFRAQSREQLAALKKHH (listed as Homo sapiens) [No. 6]
phosphorylation of S6 (mTOR marker) [2]: increased

insulin
GLUT4 translocation compared to the control [8]: significant GLUT4 translocation
